Measured values as given in patent US20070298994A1, “Use of 3-Mercapto-3-Methyl-Hexan-1-Ol for Use as Malodour Standard” (SYMRISE GMBH & CO. KG, priority 2004, published 2007).

Experiment: Raw material test against sweat odour (masking of malodour standard, assessor panel)
Conditions: not given
With CCCCCCCC1CCC(=O)O1 (centres unmarked) [5-HEPTYL-2-DIHYDROFURANONE] the “Increase In intensity” value was 1.1 and the Odour reduction value was 3.8.

Same assay, conditions: Table 1; 1 μl fragrance + 5 μl 3-mercapto-3-methyl-hexan-1-ol (0.1% in DPG) in 7 l air, 15 h at approx. 20° C.; scale 1 to 9, malodour standard mixture = 6; mean of at least 8 assessors
For CC1=CC(C)C(C(=O)C(C)(C)C)CC1 (centres unmarked), the “Increase In intensity” value was 1.4 and the Odour reduction value was 3.5. With CCOC(C=C(C)CCC=C(C)C)OCC the “Increase In intensity” value was −0.7 and the Odour reduction value was 4.3. In the case of CC1COCc2cc3c(cc21)C(C)(C)C(C)C3(C)C (centres unmarked), the “Increase In intensity” value is reported as −2.3 and the Odour reduction value is reported as 4.3. With CC1OC(C)C2Cc3ccccc3C2O1 (centres unmarked) the “Increase In intensity” value was 1.1 and the Odour reduction value was 4.1. For COC1C=C2C(C)(C)C3CCC2(C3)C(C)(C)C1 (centres unmarked), the “Increase In intensity” value was 0.5 and the Odour reduction value was 4.3. In the case of CC(=CCC1CCC=C(C)C1(C)C)CO (centres unmarked), the “Increase In intensity” value is reported as 0.0 and the Odour reduction value is reported as 3.0. For CC(=CO)CCC1CC=C(C)C1(C)C (centres unmarked), the “Increase In intensity” value was 0.3 and the Odour reduction value was 3.8>. In the case of CC1=CCC=C(C)C(O)CCC=C(C)CC1 (centres unmarked), the “Increase In intensity” value is reported as 1.5 and the Odour reduction value is reported as 4.5. For Cc1cccc(CC(C)(C)CO)c1, the “Increase In intensity” value was 1.2 and the Odour reduction value was 4.4. In the case of CC(C)=CCC(C)(C)C(=O)C(C)C, the “Increase In intensity” value is reported as 1.0 and the Odour reduction value is reported as 3.3. For CC(C)=CCCC(C)=CCCC(C)C=O (centres unmarked), the “Increase In intensity” value was 0.2 and the Odour reduction value was 3.8. With CC(=O)C1(C)CC2=C(CCCC2(C)C)CC1C (centres unmarked) the “Increase In intensity” value was 0.2 and the Odour reduction value was 3.4. For CC(=O)C(C)=CC1C(C)=CCCC1(C)C (centres unmarked), the “Increase In intensity” value was −0.7 and the Odour reduction value was 5.1. In the case of CCc1ccc(CC(C)(C)C=O)cc1, the “Increase In intensity” value is reported as −1.9 and the Odour reduction value is reported as 3.7. With CCCC(=O)C(CC)Cc1ccccc1 (centres unmarked) the “Increase In intensity” value was 0.1 and the Odour reduction value was 4.6. For CC(=O)C(C)=C(C)C(C)C(C)(C)C (centres unmarked), the “Increase In intensity” value was 1.6 and the Odour reduction value was 3.2. For C=CC(C)(O)CCC=C(C)CC (centres unmarked), the “Increase In intensity” value was 1.0 and the Odour reduction value was 3.1. For CC(C)=CCC(C)(C)C1OCC=CCO1, the “Increase In intensity” value was 0.0 and the Odour reduction value was 3.7. In the case of CC1=CCC(C(C)CC=O)CC1 (centres unmarked), the “Increase In intensity” value is reported as 0.9 and the Odour reduction value is reported as 3.9. For C/C=C/C(=O)C1CCC(C)(C)C=C1C (centres unmarked), the “Increase In intensity” value was 1.0 and the Odour reduction value was 5.0. For O=C1CCCCCCCCC/C=C/CCCO1, the “Increase In intensity” value was 0.0 and the Odour reduction value was 4.0. In the case of CC(C)=CCCC(C)CCOCC=O (centres unmarked), the “Increase In intensity” value is reported as 1.5 and the Odour reduction value is reported as 3.8. With CCCCCCC1OC(=O)CC1C (mixture of isomers) [(E/Z) 5-HEXYLDIHYDRO-4-METHYL-2-FURANONE] the “Increase In intensity” value was 1.2 and the Odour reduction value was 4.2. In the case of CCC(O)CC[C@H]1[C@@H](C)CCCC1(C)C (relative stereo), the “Increase In intensity” value is reported as 0.8 and the Odour reduction value is reported as 3.1. In the case of CC1=C[C@H](C)[C@H](C=O)CC1 (relative stereo), the “Increase In intensity” value is reported as −1.3 and the Odour reduction value is reported as 4.4. With CC=CC(=O)C1C(C)=CCCC1(C)C (stereo in doubt) [ALPHA-DAMASCONE] the “Increase In intensity” value was −2.0 and the Odour reduction value was 4.1. With c1ccc2c(c1)CC1COCOC21 (centres unmarked) [1,4A,9,9A-TETRAHYDRO-2,4-DIOXA-FLUORENE] the “Increase In intensity” value was 1.0 and the Odour reduction value was 4.3. In the case of CCCCCCO [1-HEXANOL], the “Increase In intensity” value is reported as 1.6 and the Odour reduction value is reported as 3.6. In the case of COC(=O)C1CC2(C)C=CC1(C(C)C)CC2 (centres unmarked) [1-ISOPROPYL-4-METHYL-BICYCLO[2.2.2]OCT-5-ENE-2-CARBOXYLIC ACID METHYL ESTER], the “Increase In intensity” value is reported as −0.8 and the Odour reduction value is reported as 4.2. For O=C1CCCCCCCCCCCCCCO1 [1.15-PENTADECANOLIDE], the “Increase In intensity” value was 1.1 and the Odour reduction value was 3.6. In the case of COC(=O)c1ccc(O)c(C)c1O [2,4-DIHYDROXY-3-METHYLBENZOIC ACID METHYL ESTER], the “Increase In intensity” value is reported as 0.0 and the Odour reduction value is reported as 3.0. For COC(=O)c1c(C)cc(O)c(C)c1O [2,4-DIHYDROXY-3.6-DIMETHYLBENZOIC ACID METHYL ESTER], the “Increase In intensity” value was 1.3 and the Odour reduction value was 3.8. With CCOC(=O)C1=C(C)C=CCC1(C)C [2,6,6-TRIMETHYL-1,3-CYCLOHEXADIENE CARBOXYLIC ACID ETHYL ESTER] the “Increase In intensity” value was −2.8 and the Odour reduction value was 3.0. With CC(=O)c1cc2ccccc2o1 [2-ACETYLBENZOFURAN] the “Increase In intensity” value was 1.2 and the Odour reduction value was 3.3. With CCCCCCCC1CCCC1=O (centres unmarked) [2-HEPTYL-CYCLOPENTANONE] the “Increase In intensity” value was 1.3 and the Odour reduction value was 4.5. For COCc1ccc(O)c(OC)c1 [2-METHOXY-4-METHOXYMETHYL-PHENOL], the “Increase In intensity” value was −0.1 and the Odour reduction value was 4.1. For COCc1ccccc1O [2-METHOXYMETHYLPHENOL], the “Increase In intensity” value was −2.1 and the Odour reduction value was 3.8. In the case of CC(CC#N)CCc1ccccc1 (centres unmarked) [2-METHYL-4-PHENYL BUTYL CYANIDE], the “Increase In intensity” value is reported as 0.2 and the Odour reduction value is reported as 5.3. For CC(CO)CCCc1ccccc1 (centres unmarked) [2-METHYL-5-PHENYL PENTANOL], the “Increase In intensity” value was −0.5 and the Odour reduction value was 5.1. In the case of CCCC(C)C(=O)OCC (centres unmarked) [2-METHYL-PENTANOIC ACID ETHYL ESTER], the “Increase In intensity” value is reported as 0.2 and the Odour reduction value is reported as 4.4. In the case of CCCCCCCCCC(C)C=O (centres unmarked) [2-METHYLUNDECANAL], the “Increase In intensity” value is reported as 0.7 and the Odour reduction value is reported as 3.2. In the case of COC(=O)c1ccccc1N=CC(C)Cc1ccc(C(C)(C)C)cc1 (centres unmarked) [2-[[3-[4-1 1-DIMETHYLETHYL)PHENYL)-2-METHYLPROPLIDEN]AMINO]-BENZOIC ACID METHYL ESTER], the “Increase In intensity” value is reported as −0.4 and the Odour reduction value is reported as 3.3. With O=Cc1ccc2c(c1)OCO2 [3,4-METHYLENDIOXYBENZALDEHYDE] the “Increase In intensity” value was −1.2 and the Odour reduction value was 3.7. With CC(C)=CCCC(C)CC#N (centres unmarked) [3,7-DIMETHYL-6-OCTENE NITRILE] the “Increase In intensity” value was 0.5 and the Odour reduction value was 4.5. With CCCCC1COCC(C)C1OC(C)=O (centres unmarked) [3-BUTYL-TETRAHYDRO-5-METHYL-PYRAN-4-OL ACETATE] the “Increase In intensity” value was 1.0 and the Odour reduction value was 3.0. With CC(C)c1ccc(CC=O)cc1 [4-(1-METHYLETHYL)-PHENYL ACETALDEHYDE] the “Increase In intensity” value was 1.7 and the Odour reduction value was 3.8. In the case of COc1ccc(C=O)cc1 [4-METHOXYBENZALDEHYDE], the “Increase In intensity” value is reported as 1.0 and the Odour reduction value is reported as 4.7. For CC(=O)CC(C)(C)c1ccccc1 [4-METHYL-4-PHENYL-2-PENTANONE], the “Increase In intensity” value was 1.4 and the Odour reduction value was 4.2. For CCCCCCC1(C)CCC(=O)O1 (centres unmarked) [4-METHYL-GAMMA-DECALACTONE], the “Increase In intensity” value was 0.9 and the Odour reduction value was 5.6. For CCCCCC1CCC(=O)O1 (centres unmarked) [5-PENTYLDIHYDROFURAN-2-ONE], the “Increase In intensity” value was −0.8 and the Odour reduction value was 4.1. For CC(=O)c1cc2c(cc1C)C(C)(C)C(C)CC2(C)C (centres unmarked) [6-ACETYL-1,1,2,4,4,7-[…]], the “Increase In intensity” value was 0.0 and the Odour reduction value was 3.1. With C=CCCCCCCCCC=O [10-UNDECENAL] the “Increase In intensity” value was 1.6 and the Odour reduction value was 3.3. With C=CCOC(=O)COC1CCCCC1 [(CYCLOHEXYLOXY)-ACETIC ACID-2-PROPENYL ESTER] the “Increase In intensity” value was −0.5 and the Odour reduction value was 4.3. For CCC/C=C/C=O [(E)-2-HEXENAL], the “Increase In intensity” value was −0.2 and the Odour reduction value was 3.1. In the case of C/C(=C\C#N)CCc1ccccc1 [(E)-3-METHYL-5-PHENYL-2-PENTENE NITRILE], the “Increase In intensity” value is reported as 1.2 and the Odour reduction value is reported as 5.1. For O=C1CCCCCC/C=C/CCCCCCC1 [(E)-8-CYCLOHEXADECEN-1-ONE], the “Increase In intensity” value was 0.2 and the Odour reduction value was 4.0. With CCCC1CCOC(C)S1 (centres unmarked) [(Z)-2-METHYL-4-PROPYL-1,3-OXATHIANE] the “Increase In intensity” value was 0.0 and the Odour reduction value was 3.1. In the case of CCCCCCCCCC/C=C\C#N [(Z)-2-TRIDECENE NITRILE], the “Increase In intensity” value is reported as 1.6 and the Odour reduction value is reported as 3.8. In the case of CC/C=C\CCOCCC#N [(Z)-3-(3-HEXENYLOXY)-PROPANENITRILE], the “Increase In intensity” value is reported as 1.5 and the Odour reduction value is reported as 5.0. For CC(=O)OC(C)c1ccccc1 (centres unmarked) [ACETIC ACID-1-PHENYLETHYL ESTER], the “Increase In intensity” value was −0.4 and the Odour reduction value was 4.0. With CC(=O)OCC(C)CC(C)(C)c1ccccc1 (centres unmarked) [ACETIC ACID-2,4-DIMETHYL-4-PHENYLPENTYL ESTER] the “Increase In intensity” value was 1.6 and the Odour reduction value was 3.4. For CC(=O)OCCc1ccccc1 [ACETIC ACID-2-PHENYLETHYL ESTER], the “Increase In intensity” value was 1.0 and the Odour reduction value was 4.0. With CC/C=C/CCOC(C)=O [ACETIC ACID-3(E)-HEXENYL ESTER] the “Increase In intensity” value was 1.3 and the Odour reduction value was 3.1. With CC(=O)OCCC(C)C [ACETIC ACID-3-METHYLBUTYL ESTER] the “Increase In intensity” value was 1.3 and the Odour reduction value was 5.8.

Same assay, conditions: Table 2 (raw materials without adequate malodour-reducing action); 1 μl fragrance + 5 μl 3-mercapto-3-methyl-hexan-1-ol (0.1% in DPG) in 7 l air, 15 h; scale 1 to 9, standard = 6
CC(=O)O[C@@H]1C[C@H]2CC[C@]1(C)C2(C)C (racemic) [ACETIC ACID ISOBORNYL ESTER, reference compound] showed an Increase in intensity of −0.5 and a Malodour reduction value of 2.3. CC=Cc1ccc(OC)cc1 [1-METHOXY-4-PROPENYL BENZENE, reference compound] showed an Increase in intensity of 2.0 and a Malodour reduction value of 2.0.

Same assay, conditions: Table 3 (adequate malodour-reducing action but significant increase in intensity); 1 μl fragrance + 5 μl 3-mercapto-3-methyl-hexan-1-ol (0.1% in DPG) in 7 l air, 15 h; scale 1 to 9, standard = 6
In the case of CC12CCC(CC1)C(C)(C)O2 [1,8-CINEOL, reference compound], the Increase in intensity is reported as 2.4 and the Malodour-reduction value is reported as 5.1. Work on CC(C)CCCC(C)CCO (centres unmarked) [3,7-DIMETHYL OCTANOL, reference compound] yielded an Increase in intensity of 2.2 and a Malodour-reduction value of 4.0.

Same assay, conditions: prior-art fragrances examined by the applicant
With CC(C)CCCC(C)CCO (centres unmarked) [3,7-DIMETHYL OCTANOL, reference compound] the “intrinsic odour / perfumistic impression (in words)” value was “strong perfumistic impression” and the “reduction in the bad odour based on 3-mercapto-3-methyl-hexan-1-ol (in words)” value was “leads to a malodour reduction”.
